According to PMC11839646, “HPK1 kinase inhibitor: a sufficient approach to target HPK1 to modulate T cell activation in cancer immunotherapy compared with degraders” (Frontiers in Immunology, 2025):
Where two headings read alike, the source gives them in different places.

What was measured:
HPK1 [1] = molecular target: T1, HPK1 (Homo sapiens, UniProt Q92918); assay: Western blotting of TCR-induced signaling in HKO-EV, HKO-HPK1.WT and HKO-HPK1.K46E Jurkat cells; format: cell-based; design: expressed in transfected cells; host or cells: HPK1-knockout Jurkat single clone (EdiGene), lentiviral transduction, blasticidin-selected pool; conditions: compound pretreatment, OKT3 stimulation; for SLP76-S376 phosphorylation (Western blot): HKO-HPK1.WT Jurkat cells; for ERK1/2 phosphorylation (Western blot): HKO-HPK1.WT vs HKO-EV and HKO-HPK1.K46E Jurkat cells
T1 sequence (Q92918 whole entry): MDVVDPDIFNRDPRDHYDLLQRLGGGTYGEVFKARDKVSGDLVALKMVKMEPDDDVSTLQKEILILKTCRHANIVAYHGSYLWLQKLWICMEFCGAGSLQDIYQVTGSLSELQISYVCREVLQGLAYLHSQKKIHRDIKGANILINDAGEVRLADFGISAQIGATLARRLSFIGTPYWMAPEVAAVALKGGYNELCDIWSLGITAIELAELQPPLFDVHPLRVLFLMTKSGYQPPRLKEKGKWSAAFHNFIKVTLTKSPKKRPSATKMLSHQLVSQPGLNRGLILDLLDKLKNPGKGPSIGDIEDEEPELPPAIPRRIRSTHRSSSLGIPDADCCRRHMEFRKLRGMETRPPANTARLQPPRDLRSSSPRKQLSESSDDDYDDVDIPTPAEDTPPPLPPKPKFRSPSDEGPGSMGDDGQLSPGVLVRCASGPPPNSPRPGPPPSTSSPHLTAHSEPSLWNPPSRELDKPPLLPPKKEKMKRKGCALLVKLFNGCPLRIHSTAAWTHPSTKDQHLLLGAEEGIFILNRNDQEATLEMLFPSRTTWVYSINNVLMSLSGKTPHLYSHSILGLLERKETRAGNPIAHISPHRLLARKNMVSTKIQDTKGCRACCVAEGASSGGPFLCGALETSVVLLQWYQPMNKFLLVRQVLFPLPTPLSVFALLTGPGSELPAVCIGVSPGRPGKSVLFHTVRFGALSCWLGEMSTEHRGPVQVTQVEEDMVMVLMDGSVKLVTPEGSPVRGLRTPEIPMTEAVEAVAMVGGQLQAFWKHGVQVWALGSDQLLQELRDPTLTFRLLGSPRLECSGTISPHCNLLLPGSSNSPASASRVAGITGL
Excerpt: The Jurkat line with a homozygous knockout of HPK1 (HKO) single clone was purchased from EdiGene (Beijing, China). HKO-EV (HKO empty vector control), HKO-HPK1.WT (HKO overexpressing wildtype HPK1), and HKO-HPK1.K46E (HKO overexpressing kinase-dead HPK1) Jurkat pools were generated by lenti-vector transduction. In brief, the coding sequences of different HPK1 mutants were inserted into a FG12-BSD plasmid with the human phosphoglycerate kinase (hPGK) promoter (GenScript, Nanjing, China). Thereafter, 293T cells (ATCC) were transfected with those plasmids together with lentivirus packing plasmids pMD2.G and psPAX2. The culture medium containing virus was collected and used to infect HKO cells. Blasticidin 10 µg/mL (InvivoGen, San Diego, CA, USA) was used for the selection of infected cells. HPK1-knockin Jurkat cells (HPK1 K46*) and kinase-inactivated HPK1-knockin Jurkat cells (HPK1 K46E) were produced by introducing a Lys46Ter mutation or a Lys46Glu mutation to the HPK1 gene, respectively.
(§1) Jurkat cells were activated by anti-human CD3 (OKT3; 10 μg/mL, Thermo Fisher Scientific), while human peripheral blood cells were activated through TCR crosslinking by biotinylated OKT3 and streptavidin (7.5 μg/mL; Thermo Fisher Scientific). The cells were lysed at various time points post stimulation, and the lysate was denatured. The obtained samples were subjected to electrophoresis, and the separated proteins were electro-transferred onto a nitrocellulose membrane. Thereafter, the membranes were incubated with antibodies against HPK1 (E1C3L), phosphorylated SLP76-S376 (p-SLP76-S376; D7S1K), SLP76 (D1R1A), p-ERK1/2-T202/Y204 (D13.14.4E), p-PLCγ1-Y783 (polyclonal), PLCγ1 (D9H10), and glyceraldehyde-3-phosphate dehydrogenase (GAPDH; D4C6R). All antibodies used for immunoblotting were purchased from Cell Signaling Technology (Danvers, MA, USA).

[2] = test system: phosphorylation of SLP76-S376; assay: TCR-induced p-SLP76-S376 in Jurkat cells after OKT3 stimulation (flow cytometry); format: cell-based; conditions: Homo sapiens; Jurkat cells pretreated 24 h, OKT3 stimulation 30 min
Procedure: (§2) Jurkat cells (ATCC, Manassas, VA, USA) and human peripheral blood mononuclear cells (PBMCs) were cultured in RPMI-1640 medium (Thermo Fisher Scientific, Waltham, MA, USA) supplemented with 10% heat-inactivated fetal bovine serum (Thermo Fisher) and 1% penicillin–streptomycin (Thermo Fisher Scientific) at 37°C in a humidified incubator with 5% CO2. The density of Jurkat cells was adjusted to 1 × 10^6/mL 24 h before conducting the experiment. Cryopreserved human PBMCs were purchased from Oribiotech (Shanghai, China); they were freshly thawed and cultured overnight prior to performing the experiment.
(§3) Jurkat cells or human PBMCs were pretreated in triplicates or quadruplicates with dimethyl sulfoxide or compounds for 24 h. For p-SLP76-S376 analysis, the cells were activated for 30 min with OKT3. For granzyme B and perforin analysis of human PBMCs, ultra-high binding 96-well plates (Corning Inc., Corning, NY, USA) were precoated with OKT3 overnight at 4°C. Human PBMCs were pretreated in quadruplicates with dimethyl sulfoxide or compounds for 24 h. The cells were then activated for another 24 h with precoated OKT3, followed by 2 h treatment with Protein Transport Inhibitor Cocktail (Thermo Fisher). The stimulated cells were fixed with BD Phosflow™ Lyse/Fix buffer (BD Biosciences, San Diego, CA, USA), washed and permeabilized with BD Perm Buffer III (BD Biosciences), and subsequently stained with a fluorescence-conjugated antibody against HPK1 (E1C3L; Cell Signaling Technology), p-SLP76-S376 (E3G9U; Cell Signaling Technology), granzyme B (GB11, BioLegend, San Diego, CA, USA), perforin (dG9, BioLegend) and anti-human CD3 (SK7, BioLegend), CD4 (SK3, BioLegend) and CD8 (SK1, BioLegend) for primary T cells. This was followed by data acquisition and analysis with the BD FACSymphony™ A1 Cell Analyzer (BD Biosciences).

HPK1 [3] = molecular target: T1, HPK1; assay: HPK1 degradation in Jurkat cells (intracellular staining, flow cytometry); format: cell-based; design: Compound 2 degraded HPK1 in CD4^+ and CD8^+ T cells in a concentration-dependent manner; host or cells: human PBMCs (CD4+ and CD8+ T cells) from healthy donors; conditions: for HPK1 degradation at high concentrations: 24 h treatment, ≥1,000 nM
Procedure: as §2, §3

HPK1 [4] = molecular target: T1, HPK1; assay: Western blotting of TCR-induced signaling in human PBMCs after TCR crosslinking; format: cell-based; design: Compound 2 degraded HPK1 in CD4^+ and CD8^+ T cells in a concentration-dependent manner; host or cells: human PBMCs (CD4+ and CD8+ T cells) from healthy donors
Procedure: as §2, §1

[5] = test system: CD8+ T cells of human PBMCs; assay: Granzyme B levels in CD8+ T cells of human PBMCs after OKT3 stimulation; format: cell-based; conditions: human PBMCs pretreated 24 h, OKT3 stimulation 24 h
Procedure: as §3

[6] = test system: phosphorylation of SLP76-S376; assay: TCR-induced p-SLP76-S376 in CD4+ and CD8+ T cells of human PBMCs (flow cytometry); format: cell-based; conditions: for TCR-induced phosphorylation on SLP76-S376: 24 h pretreatment
Procedure: as §2, §3

HepG2 cells = assay: Real-time cell mediated cytotoxicity assay (xCELLigence RTCA), PBMC killing of HepG2; format: cell-based; conditions: PBMC:HepG2 5:1, compared to DMSO-pretreated PBMCs, up to 6 days post TCR stimulation
Procedure: For in vitro HepG2 cell killing, human PBMCs were pretreated in quadruplicates with dimethyl sulfoxide or compounds for 24 h, followed by stimulation by OKT3 for another 24 h. HepG2 cells were seeded at 2 × 10^4/well in a RTCA 96-well-E plate (Agilent Technologies, Sana Clara, CA, USA). 24 h after HepG2 seeding, the stimulated PBMCs were added at a PBMC: HepG2 cells ratio of 5:1. Target cell death was monitored using xCELLigence RTCA MP instrument (Agilent Technologies).

human PBMCs = assay: IL-2 and IFN-γ production by human PBMCs co-cultured with HEK293/OS8/PD-L1; format: cell-based; conditions: human PBMCs pretreated 24 h, co-culture with HEK293/OS8/PD-L1 24 h
Procedure: as §2
Jurkat cells were seeded in triplicates into those plates for stimulation and incubated for 24 h. Alternatively, Jurkat cells were pretreated with various concentrations of the aforementioned compounds for 24 h prior to stimulation with aforementioned immobilized OKT3. For cytokine analysis of human PBMCs, the cells were seeded into U-bottomed 96-well plates (Corning Inc.) and treated with the compounds for 24 h prior to stimulation. […] Interleukin 2 (IL-2) and interferon-gamma (IFN-γ) in the supernatant were detected using the HTRF Human IL-2 Detection Kit and AlphaLISA Biotin-Free Human IFNγ Detection Kit (both obtained from Revvity, Waltham, MA, USA) according to the instructions provided by the manufacturer. […]

Jurkat cells = assay: IL-2 production by Jurkat cells stimulated with immobilized OKT3; format: cell-based, human; conditions: Jurkat cells pretreated 24 h, immobilized OKT3 24 h
Procedure: as §2
Jurkat cells were seeded in triplicates into those plates for stimulation and incubated for 24 h. Alternatively, Jurkat cells were pretreated with various concentrations of the aforementioned compounds for 24 h prior to stimulation with aforementioned immobilized OKT3. For cytokine analysis of human PBMCs, the cells were seeded into U-bottomed 96-well plates (Corning Inc.) and treated with the compounds for 24 h prior to stimulation. Next, the cells were stimulated by co-culture with HEK293/OS8/PD-L1 cells in the U-bottomed 96-well plates for another 24 h. HEK293/OS8/PD-L1 is a HEK293 cell line edited to stably co-express human PD-L1 (programmed death ligand 1) and single chain fragment variable (scFv) of OKT3 fused with transmembrane and cytoplasmic domains of murine CD8α, as previously described ([21]). Interleukin 2 (IL-2) and interferon-gamma (IFN-γ) in the supernatant were detected using the HTRF Human IL-2 Detection Kit and AlphaLISA Biotin-Free Human IFNγ Detection Kit (both obtained from Revvity, Waltham, MA, USA) according to the instructions provided by the manufacturer. Data were acquired with PHERAstar FSX (BMG LABTECH Inc., Cary, NC, USA).

HPK1 [7] = molecular target: T1, HPK1; assay: HPK1 degradation in CD4+ and CD8+ T cells of human PBMCs (flow cytometry); format: cell-based; design: Compound 2 degraded HPK1 in CD4^+ and CD8^+ T cells in a concentration-dependent manner; host or cells: human PBMCs (CD4+ and CD8+ T cells) from healthy donors; conditions: for DC50: 24 h treatment, read-out: HPK1 degradation EC50; for HPK1 degradation at 1,000 nM / HPK1 degradation at high concentrations: CD4+ and CD8+ T cells in human PBMCs; for HPK1 degradation at 1,000 nM: 24 h, 1,000 nM; for HPK1 degradation at high concentrations: 24 h, ≥3,000 nM
Procedure: as §2, §3

HPK1 [8] = test system: HPK1; design: method as in PMID 32860752, PMID 39446986, PMID 39568237; conditions: preclinical; cited from earlier work
[9] = 300 nM and 1,000 nM pretreatment

SMILES	SLP76-S376 phosphorylation (Western blot) (HPK1 [1])	ERK1/2 phosphorylation (Western blot) (HPK1 [1])	IC50 [2] [nM]	Granzyme B levels in CD8+ T cells [5]	TCR-induced phosphorylation on SLP76-S376 [6]	Cytotoxicity of pretreated PBMCs against HepG2 cells (HepG2 cells)	HPK1 degradation at high concentrations (HPK1 [3])	HPK1 levels (Western blot) (HPK1 [4]; [9])	SLP76-S376 phosphorylation (Western blot) (HPK1 [4]; [9])	IL-2 production EC50 relative to Compound 2 (Jurkat cells)	IL-2 production, maximal level (Jurkat cells)	HPK1 degradation at 1,000 nM (HPK1 [7])	HPK1 degradation at high concentrations (HPK1 [7])	also measured
Cc1cc(-c2cnc3[nH]cc(-c4ccc(C(=O)N(C)C)cc4)c3c2)cc2c1CN(CCC(=O)N1CCN(c3ccc(N4CCC(=O)NC4=O)cc3)CC1)CC2 [Compound 2, 4-(5-(2-(3-(4-(4-(2,4-dioxotetrahydropyrimidin-1(2H)-yl)phenyl)piperazin-1-yl)-3-oxopropyl)-8-methyl-1,2,3,4-tetrahydroisoquinolin-6-yl)-1H-pyrrolo[2,3-b]pyridin-3-yl)-N,N-dimethylbenzamide]	attenuated SLP76-S376 phosphorylation	enhanced ERK1/2 phosphorylation only in HKO-HPK1.WT Jurkat cells	~20	enhanced granzyme B levels	effectively reduced	did not exhibited stronger cytotoxicity against HepG2 cells	–	–	–	–	–	–	–	HPK1 degradation, time course (HPK1 [3]; 1 μM, within 24 h): effectively degraded HPK1; HPK1 levels (Western blot) (HPK1 [4]; 300 nM pretreatment): almost complete degradation of HPK1; SLP76-S376 phosphorylation (Western blot) (HPK1 [4]; 300 nM pretreatment): attenuation of SLP76-S376 phosphorylation; IC50 for SLP76-S376 phosphorylation relative to the other two compounds [6]: lower in both populations; Maximal enhancement of TCR-induced IL-2 and IFN-γ production (human PBMCs): not stronger than that after treatment with Compound 1; EC50 (Jurkat cells; Homo sapiens): ~200 nM; DC50 (HPK1 [7]; CD4+ T cells in human PBMCs): 11.5 nM; DC50 (HPK1 [7]; CD8+ T cells in human PBMCs): 26 nM
Cc1cc(-c2cnc3[nH]cc(-c4ccc(C(=O)N(C)C)cc4)c3c2)cc2c1CN(C)CC2 [Compound 1, 4-(5-(2,8-dimethyl-1,2,3,4-tetrahydroisoquinolin-6-yl)-1H-pyrrolo[2,3-b]pyridin-3-yl)-N,N-dimethylbenzamide]	attenuated SLP76-S376 phosphorylation	enhanced ERK1/2 phosphorylation only in HKO-HPK1.WT Jurkat cells	120	enhanced granzyme B levels	effectively reduced	–	resulted in the degradation of HPK1	without significantly affecting HPK1 levels	reduced or almost completely attenuated SLP76-S376 phosphorylation	higher	comparable with that induced by Compound 2	did not significantly degrade HPK1	limited HPK1 degradation	–
Cc1cc(-c2cnc3[nH]cc(-c4ccc(C(=O)N(C)C)cc4)c3c2)cc2c1CN(CCC(=O)N1CCN(c3ccc(N4CCC(=O)N(C)C4=O)cc3)CC1)CC2 [Compound 3, N,N-dimethyl-4-(5-(8-methyl-2-(3-(4-(4-(3-methyl-2,4-dioxotetrahydropyrimidin-1(2H)-yl)phenyl)piperazin-1-yl)-3-oxopropyl)-1,2,3,4-tetrahydroisoquinolin-6-yl)-1H-pyrrolo[2,3-b]pyridin-3-yl)benzamide]	attenuated SLP76-S376 phosphorylation	enhanced ERK1/2 phosphorylation only in HKO-HPK1.WT Jurkat cells	120	–	effectively reduced	enhanced HepG2 killing ability of PBMCs, but to a less extent than Compound 1 or Compound 2	resulted in the degradation of HPK1	without significantly affecting HPK1 levels	reduced or almost completely attenuated SLP76-S376 phosphorylation	higher	comparable with that induced by Compound 2	did not significantly degrade HPK1	limited HPK1 degradation	–
CC(C)(O)C#Cc1cccc(COc2cc(-c3cnc(C4CCN(C(=O)CCOCCOCCOCCOCCOc5cccc6c5C(=O)N(C5CCC(=O)NC5=O)C6=O)CC4)s3)cnc2N)c1 (stereo not drawn) [SS47]	–	–	–	–	–	–	–	–	–	–	–	–	–	Tumor suppression compared to the corresponding warhead (HPK1 [8]): greater tumor suppression
